These results are taken from PubChem BioAssay AID1259246 (Broad Institute, 2017).

Inconclusive results are not listed. Active and inactive are the calls of the source.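 The calls were made as follows: active = valid dose-response fit whose half-maximal growth-inhibiting concentration is at or below a set limit above the top tested dose; inconclusive = flat fit with effect between 30 and 70%, or poor fit; inactive = half-maximal concentration above a set limit.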

A short description of the first experiment: antibacterial activity against Clostridioides difficile – 10-point retest, dose response (AID 1259246). The conditions noted are these: Clostridioides difficile clinical isolate growth, OD600, 24 h; at 60 µM (top of the series).
`C[C@H]1CCCCO[C@H](CN(C)Cc2ccccc2)[C@@H](C)CN([C@@H](C)CO)C(=O)c2cc(NC(=O)Nc3ccc(C(F)(F)F)cc3)ccc2O1`: the activity change, negative = inhibition is 3.08% (inactive).

For `COc1ccc(CNC(=O)C[C@H]2C[C@@H]3c4cc(NC(=O)C5CCC5)ccc4O[C@@H]3[C@@H](CO)O2)cc1`, the activity change, negative = inhibition is -1.06% (inactive). For the compound `CCCNC(=O)C[C@@H]1CC[C@H]2[C@H](COc3ccc(NC(=O)c4cccc(Cl)c4)cc3C(=O)N2C)O1`, the activity change, negative = inhibition is 10.3% (inactive).

The experiment is the same for the next values; noted with them: Clostridioides difficile clinical isolate growth, OD600, 24 h; at 68 µM (top of the series).
Turning to `C[C@@H]1CN([C@@H](C)CO)C(=O)c2cccc(NC(=O)Nc3ccc(C(F)(F)F)cc3)c2O[C@H]1CN(C)S(=O)(=O)c1ccc(Cl)cc1`, the activity change, negative = inhibition is 12.7% (inactive).

The experiment is the same for the next values; noted with them: Clostridioides difficile clinical isolate growth, OD600, 24 h; at 120 µM (top of the series).
Consider `C[C@@H]1CN([C@H](C)CO)C(=O)Cc2cc(NC(=O)C3CC3)ccc2O[C@H]1CN(C)Cc1ccc(-c2ccccc2)cc1`, for which the activity change, negative = inhibition is 18.8% (inactive). Same read-out and setting: in the case of `C[C@H](CO)N1C[C@H](C)[C@@H](CN(C)C(=O)NC2CCCCC2)Oc2c(NC(=O)Nc3cccc4ccccc34)cccc2C1=O` it was 23.7% (inactive). Same read-out and setting: in the case of `CC(C)CC#Cc1ccc2c(c1)O[C@H](CN(C)CC1CCOCC1)[C@H](C)CN([C@H](C)CO)S2(=O)=O` it was 14.5% (inactive); in that of `C[C@@H]1CN([C@@H](C)CO)C(=O)c2cccc(NC(=O)Nc3ccc(C(F)(F)F)cc3)c2O[C@H]1CN(C)S(=O)(=O)c1ccc(Cl)cc1`, 50.7% (inactive); in that of `C[C@@H]1CN([C@H](C)CO)C(=O)Cc2cc(NC(=O)C3CCCCC3)ccc2O[C@@H]1CN(C)Cc1ccc(-c2ccccc2)cc1`, 25.3% (inactive). On the same count and under the same terms, next, `C[C@H](CO)N1C[C@H](C)[C@@H](CN(C)Cc2cccnc2)Oc2cc(Br)ccc2S1(=O)=O`: -1.18% (inactive). On to `C[C@@H]1CN([C@@H](C)CO)C(=O)Cc2cc(NC(=O)C3CC3)ccc2O[C@H]1CN(C)Cc1ccc(-c2ccccc2)cc1`, for which the activity change, negative = inhibition was 25% (inactive). The same measure, in the same setting: next, `C[C@@H]1CN([C@H](C)CO)S(=O)(=O)c2ccc(C#CC3CCCC3)cc2O[C@H]1CN(C)Cc1cncnc1`: 38.8% (inactive); `CO[C@H]1CN(C)C(=O)c2ccc(NC(=O)c3ccc(-c4ccccc4)cc3)cc2OC[C@@H](C)NC[C@H]1C`: 31.5% (inactive); `C[C@@H]1CN([C@@H](C)CO)C(=O)c2cccc(NC(=O)Nc3ccc(C(F)(F)F)cc3)c2O[C@H]1CN(C)C(=O)NC1CCCCC1`: 15.3% (inactive). On the same count and under the same terms, in the case of `C[C@@H]1CN([C@H](C)CO)C(=O)c2cccc(NC(=O)Nc3ccc(C(F)(F)F)cc3)c2O[C@@H]1CN(C)C(=O)Nc1ccc(F)cc1` it was -4.05% (inactive); in that of `COC(=O)C[C@H]1C[C@@H]2c3cc(NC(=O)C4CCC4)ccc3O[C@@H]2[C@@H](CO)O1`, -6.56% (inactive). Same read-out and setting: in the case of `C[C@@H]1CN([C@@H](C)CO)S(=O)(=O)c2ccc(/C=C/c3ccccc3)cc2O[C@H]1CN(C)C(=O)Nc1ccc(F)cc1` it was 32.6% (inactive); in that of `O=C(C[C@H]1C[C@H]2c3cc(NC(=O)C4CCC4)ccc3O[C@H]2[C@@H](CO)O1)NCc1ccc(Cl)cc1`, 2.85% (inactive); in that of `CO[C@H]1CN(C)C(=O)c2cc(NC(=O)c3ccc(-c4ccccc4)cc3)ccc2OC[C@H](C)NC[C@H]1C`, 25.8% (inactive). In the case of `CO[C@@H]1CN(C)C(=O)c2ccc(NC(=O)c3ccc(-c4ccccc4)cc3)cc2OC[C@H](C)NC[C@H]1C`, the activity change, negative = inhibition was 8.57% (inactive).

`C[C@@H]1CN([C@H](C)CO)S(=O)(=O)c2ccc(Br)cc2O[C@H]1CN(C)Cc1cccnc1`: the activity change, negative = inhibition is 0.001% (inactive). Same read-out and setting: next, `CO[C@H]1CN(C)C(=O)c2cc(NC(=O)c3ccc(-c4ccccc4)cc3)ccc2OC[C@@H](C)NC[C@@H]1C`: 30.6% (inactive). Still for that read-out and setting: in the case of `O=C(C[C@@H]1C[C@@H]2c3cc(NC(=O)C4CCC4)ccc3O[C@@H]2[C@@H](CO)O1)NCc1ccc(Cl)cc1` it was -5.46% (inactive). For `CNC[C@H]1Oc2c(NC(=O)Nc3ccc4c(c3)OCO4)cccc2C(=O)N([C@@H](C)CO)C[C@H]1C`, the activity change, negative = inhibition is 4.27% (inactive). Regarding `C[C@H]1CCCCO[C@@H](CN(C)S(=O)(=O)c2ccc(F)cc2)[C@@H](C)CN([C@@H](C)CO)C(=O)c2cc(NC(=O)Nc3cccc4ccccc34)ccc2O1`, the activity change, negative = inhibition was 42.1% (inactive). Still for that read-out and setting: in the case of `COc1ccc(S(=O)(=O)N(C)C[C@H]2Oc3c(NS(=O)(=O)c4ccccc4)cccc3C(=O)N([C@H](C)CO)C[C@@H]2C)cc1` it was 28% (inactive); in that of `C[C@H](CO)N1C[C@H](C)[C@H](CN(C)C(=O)NC2CCCCC2)Oc2c(NC(=O)Nc3ccc(C(F)(F)F)cc3)cccc2C1=O`, 32.2% (inactive). For the compound `C[C@@H]1CN([C@H](C)CO)S(=O)(=O)c2ccc(C#CCN(C)C)cc2O[C@@H]1CN(C)Cc1ccc2c(c1)OCO2`, the activity change, negative = inhibition was 0.003% (inactive). Same read-out and setting: in the case of `N#C[C@H]1[C@@H](c2ccc(C#CC3CCCCC3)cc2)[C@@H](CO)N1C(=O)Cc1ccccn1` it was 40.2% (inactive); in that of `C[C@H](CO)N1C[C@H](C)[C@@H](CN(C)C(=O)NC2CCCCC2)Oc2c(NC(=O)Nc3ccc(C(F)(F)F)cc3)cccc2C1=O`, 28.9% (inactive). The same measure, in the same setting: next, `C[C@@H]1CN([C@@H](C)CO)C(=O)Cc2cc(NC(=O)CCC(F)(F)F)ccc2O[C@H]1CN(C)Cc1ccc(-c2ccccc2)cc1`: 37.3% (inactive). The same measure, in the same setting: next, `CC(C)C#Cc1ccc2c(c1)O[C@H](CN(C)CC1CCOCC1)[C@H](C)CN([C@@H](C)CO)S2(=O)=O`: 4.6% (inactive); `C[C@@H]1CN([C@H](C)CO)C(=O)Cc2cc(NC(=O)CCCN(C)C)ccc2O[C@@H]1CN(C)Cc1ccc(Oc2ccccc2)cc1`: 22.2% (inactive); `C[C@@H]1CN([C@H](C)CO)C(=O)c2cccc(NC(=O)Nc3ccc(C(F)(F)F)cc3)c2O[C@H]1CN(C)Cc1ccc(-c2ccccc2)cc1`: 8.44% (inactive).

Still in this experiment, the particulars now being: Clostridioides difficile clinical isolate growth, OD600, 24 h; at 135 µM (top of the series).
As to `CO[C@H]1CN(C)C(=O)c2cc(NC(=O)c3ccc(-c4ccccc4)cc3)ccc2OC[C@H](C)NC[C@@H]1C`, the activity change, negative = inhibition is 34.1% (inactive). With `O=C(C[C@H]1C[C@@H]2c3cc(NC(=O)Nc4ccc(F)cc4)ccc3O[C@@H]2[C@H](CO)O1)NC1CCCCC1`, the activity change, negative = inhibition was -1.13% (inactive).

As to `COc1ccc(S(=O)(=O)N(C)C[C@@H]2Oc3ccc(NC(=O)CCCN(C)C)cc3CC(=O)N([C@H](C)CO)C[C@H]2C)cc1`, the activity change, negative = inhibition was -7.92% (inactive). On the same count and under the same terms, next, `C[C@@H]1CN([C@H](C)CO)C(=O)Cc2cc(NC(=O)c3ccncc3)ccc2O[C@@H]1CN(C)Cc1ccc(-c2ccccc2)cc1`: 20.6% (inactive). The same measure, in the same setting: in the case of `CO[C@H]1CN(C)C(=O)c2cc(NC(=O)c3ccc(-c4ccccc4)cc3)ccc2OC[C@H](C)NC[C@H]1C` it was 102% (inactive); in that of `COc1ccc(NC(=O)N(C)C[C@@H]2Oc3ccc(NC(=O)CCCN(C)C)cc3CC(=O)N([C@H](C)CO)C[C@H]2C)cc1`, 1.15% (inactive).

Turning to `C[C@@H]1CN([C@H](C)CO)C(=O)Cc2cc(NC(=O)C3CC3)ccc2O[C@@H]1CN(C)Cc1ccc(-c2ccccc2)cc1`, the activity change, negative = inhibition is 20.9% (inactive).
